Literature values, collected in patent US7060729B2, “Composition and method for treating skin” (priority 2002, dated 2006).
Where two headings read alike, the source gives them in different places.

How the values were obtained:
[1] = topical application
[2] = in vivo
[3] = tested on: H. pylori; conditions: Mayr-Kanhauser 2001
[4] = as stated in US 5,972,993

| SMILES | inflammatory papule lesions and erythema [1] | pustules caused by rosacea [1] | telangiectasia [1] | erythema, dryness, and burning associated with rosacea [2] | physicians' rating of global improvement, azelaic acid versus metronidazole [2] | reducing the number of inflammatory lesions and associated signs and symptoms of rosacea [2] | telangiectasia [2] | eliminating H. pylori [3] | effect against skin redness, telangiectasia or flushing [4] | effect on papules and pustules of rosacea [4] |
| --- | --- | --- | --- | --- | --- | --- | --- | --- | --- | --- |
| O=C(O)CCCCCCCC(=O)O [azelaic acid, 1,7-heptanedicarboxylic acid] | significantly reduce | not effective | did not produce any major improvement | effective | more favorably | equally effective | failed to effect | – | – | – |
| CC[C@H]1OC(=O)[C@H](C)[C@@H](O[C@H]2C[C@@](C)(OC)[C@@H](O)[C@H](C)O2)[C@H](C)[C@@H](O[C@@H]2O[C@H](C)C[C@H](N(C)C)[C@H]2O)[C@](C)(OC)C[C@@H](C)C(=O)[C@H](C)[C@@H](O)[C@]1(C)O [clarithromycin] | – | – | – | – | – | – | – | effective | – | – |
| Cc1ncc([N+](=O)[O-])n1CCO [metronidazole, 2-methyl-5-nitro-1H-imidazole-1-ethanol] | – | – | – | effective | – | equally effective | failed to effect | effective | ineffective | have an effect |
